Measurements published in patent US10106534B2 (CELGENE QUANTICEL RESEARCH, INC., priority 2014, dated 2018).

Legend:
JMJD2C = JMJD2C (Homo sapiens (Human), UniProt Q9H3R0); assay: In vitro enzyme inhibition assay for JMJD2C activity (TR-FRET); type: biochemical
Method in brief: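 Demethylation product H3K9me2 quantified by TR-FRET ratio 665/615 after EDTA stop and 1 h with Eu-anti-H3K9me2 and streptavidin-APC; IC50 by curve fit. Reaction: 0.3 nM JMJD2C (AA 2-372, baculovirus), 2 μM α-ketoglutarate, 300 nM biotin-H3K9me3 peptide, pH 7.3 HEPES with Fe(II)/ascorbate, 30 min room temperature.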

[1] = tested on: KYSE-150 esophageal carcinoma cell line; assay: In vitro cell-based assay: cellular proliferation via BrdU incorporation (ELISA); set-up: species or system human; settings: Homo sapiens, KYSE-150, 168 hours compound incubation
Description: The primary cellular assay for JMJD2C inhibition is an assay which measures cellular proliferation via Bromodeoxyuridine (BrdU) incorporation after 168 hours of compound incubation. Cell lines tested include the JMJD2C gene amplified cell line KYSE-150. This is a quantitative ELISA assay measuring DNA incorporation of BrdU during S-phase as a direct readout of cellular proliferation.
Assay Principle: This is a colorimetric immunoassay for the quantification of cell proliferation. Cells treated for 168 hours with test compounds are assayed for their ability to go through S-phase as a measure of their proliferative potential.
Assay Method: The human KYSE-150 (SMAD4 mut, TP53 mut) esophageal carcinoma cell line was seeded at 2,000 cells/well on a 96-well tissue culture treated plate. After an overnight incubation, cells were treated with compound in an 11-point dilution series with final concentrations ranging from 100 μM to 2 nM. Cells were then incubated in the presence of compound for 168 hours. After compound incubation the cells were assayed using a BrdU Cell Proliferation ELISA (Roche). The cells were first incubated with BrdU labeling reagent for 2 hours. After 2 hours, the BrdU incorporated cells were fixed and denatured, probed with an anti-BrdU-Peroxidase antibody for 1.5 hours and washed. Finally, a tetramethylbenzidine peroxidase substrate was added to each well for 15 minutes followed by a H2SO4 stop solution. The plate was read at 450 nm, and the raw optical density data was transferred into XLFit (IDBS) for IC50 calculation using the formula: fit=(D+((Vmax*(x^n))/((x^n)+(Km^n))))

Chain of JMJD2C (Q9H3R0 2-372): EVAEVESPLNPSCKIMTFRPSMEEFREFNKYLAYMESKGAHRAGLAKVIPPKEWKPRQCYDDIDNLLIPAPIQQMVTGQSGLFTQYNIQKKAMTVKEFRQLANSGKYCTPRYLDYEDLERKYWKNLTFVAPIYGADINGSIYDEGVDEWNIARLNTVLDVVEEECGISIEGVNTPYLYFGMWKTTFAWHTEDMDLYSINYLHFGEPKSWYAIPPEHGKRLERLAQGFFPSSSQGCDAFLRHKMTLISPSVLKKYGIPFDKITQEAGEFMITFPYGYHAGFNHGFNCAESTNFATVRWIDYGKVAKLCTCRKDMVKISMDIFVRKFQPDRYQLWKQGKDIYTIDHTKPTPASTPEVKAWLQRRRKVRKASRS

| SMILES | IC50 (JMJD2C) | IC50 [1] |
| --- | --- | --- |
| Cc1cccc(Oc2ccc3c(c2)CCCC3CNc2cnccc2C(=O)O)n1 (centres unmarked) [Example 56, 3-[({6-[(6-methylpyridin-2-yl)oxy]-1,2,3,4-tetrahydronaphthalen-1-yl}methyl)amino]pyridine-4-carboxylic acid] | 0.1 to 1 µM | 1 to 10 µM |
| Cc1cccc(-c2ccc3c(c2)OCC[C@H]3CNc2cnccc2C(=O)O)c1 [Example 30, 3-({[(4R)-7-(3-methylphenyl)-3,4-dihydro-2H-1-benzopyran-4-yl]methyl}amino)pyridine-4-carboxylic acid] | 0.1 to 1 µM | 0.1 to 1 µM |
| O=C(O)c1ccncc1NC[C@@H]1CCCc2cc(N3CCCC3)ccc21 [Example 106, 3-({[(1R)-6-(pyrrolidin-1-yl)-1,2,3,4-tetrahydronaphthalen-1-yl]methyl}amino)pyridine-4-carboxylic acid] | 0.1 to 1 µM | 0.1 to 1 µM |
| Cc1ccccc1N(C)c1ccc2c(c1)OCC[C@H]2CNc1cnccc1C(=O)O [Example 111, 3-({[(4R)-7-[methyl(2-methylphenyl)amino]-3,4-dihydro-2H-1-benzopyran-4-yl]methyl}amino)pyridine-4-carboxylic acid] | 0.1 to 1 µM | 0.1 to 1 µM |
| CN(c1ccc(Cl)cc1)c1ccc2c(c1)CCC[C@H]2CNc1cnccc1C(=O)O [Example 9, 3-({[(1R)-6-[(4-chlorophenyl)(methyl)amino]-1,2,3,4-tetrahydronaphthalen-1-yl]methyl}amino)pyridine-4-carboxylic acid] | 1 to 10 µM | ≤ 0.1 µM |
| O=C(O)c1ccncc1NC[C@@H]1CCCc2cc(Oc3ccc(F)cc3F)ccc21 [Example 65, 3-({[(1R)-6-(2,4-difluorophenoxy)-1,2,3,4-tetrahydronaphthalen-1-yl]methyl}amino)pyridine-4-carboxylic acid] | 0.1 to 1 µM | 0.1 to 1 µM |
| O=C(O)c1ccncc1NCC1CCCc2cc(N3CCCC3=O)ccc21 (centres unmarked) [Example 3, 3-({[6-(2-oxopyrrolidin-1-yl)-1,2,3,4-tetrahydronaphthalen-1-yl]methyl}amino)pyridine-4-carboxylic acid] | 0.1 to 1 µM | > 10 µM |
| CN(c1ccc(F)cc1)c1ccc2c(c1)CCC[C@H]2CNc1cnccc1C(=O)O [Example 8, 3-({[(1R)-6-[(4-fluorophenyl)(methyl)amino]-1,2,3,4-tetrahydronaphthalen-1-yl]methyl}amino)pyridine-4-carboxylic acid] | 0.1 to 1 µM | ≤ 0.1 µM |
| O=C(O)c1ccncc1NCC1CCOc2cc(-c3ccc(C(F)(F)F)cc3)ccc21 (centres unmarked) [Example 27, 3-[({7-[4-(trifluoromethyl)phenyl]-3,4-dihydro-2H-1-benzopyran-4-yl}methyl)amino]pyridine-4-carboxylic acid] | 1 to 10 µM | 1 to 10 µM |
| CN(c1ccc2c(c1)CCC[C@H]2CNc1cnccc1C(=O)O)c1ccccc1F [Example 6, 3-({[(1R)-6-[(2-fluorophenyl)(methyl)amino]-1,2,3,4-tetrahydronaphthalen-1-yl]methyl}amino)pyridine-4-carboxylic acid] | 0.1 to 1 µM | ≤ 0.1 µM |
| O=C(O)c1ccncc1NCC1CCCc2cc(Sc3ccccn3)ccc21 (centres unmarked) [Example 80, 3-({[6-(pyridin-2-ylsulfanyl)-1,2,3,4-tetrahydronaphthalen-1-yl]methyl}amino)pyridine-4-carboxylic acid] | 0.1 to 1 µM | 1 to 10 µM |
| COc1ccc(F)cc1-c1ccc2c(c1)OCC[C@H]2CNc1cnccc1C(=O)O [Example 102, 3-({[(4R)-7-(5-fluoro-2-methoxyphenyl)-3,4-dihydro-2H-1-benzopyran-4-yl]methyl}amino)pyridine-4-carboxylic acid] | 0.1 to 1 µM | 0.1 to 1 µM |
| COc1cc2c(c(OC)c1)C(CNc1cnccc1C(=O)O)CCC2 (centres unmarked) [Example 95, 3-{[(6,8-dimethoxy-1,2,3,4-tetrahydronaphthalen-1-yl)methyl]amino}pyridine-4-carboxylic acid] | 0.1 to 1 µM | > 10 µM |
| O=C(O)c1ccncc1NC[C@@H]1CCCc2cc(OC(F)F)ccc21 [Example 61, 3-({[(1R)-6-(difluoromethoxy)-1,2,3,4-tetrahydronaphthalen-1-yl]methyl}amino)pyridine-4-carboxylic acid] | 0.1 to 1 µM | 1 to 10 µM |
| CN(c1cccc(F)c1)c1ccc2c(c1)CCC[C@H]2CNc1cnccc1C(=O)O [Example 7, 3-({[(1R)-6-[(3-fluorophenyl)(methyl)amino]-1,2,3,4-tetrahydronaphthalen-1-yl]methyl}amino)pyridine-4-carboxylic acid] | 0.1 to 1 µM | ≤ 0.1 µM |

More lines, now with the values ahead:

| IC50 (JMJD2C) | IC50 [1] | SMILES |
| --- | --- | --- |
| 0.1 to 1 µM | ≤ 0.1 µM | CN(c1ccc(C2=CCOCC2)cc1)c1ccc2c(c1)OCC[C@H]2CNc1cnccc1C(=O)O [Example 201, 3-({[(4R)-7-{[4-(3,6-dihydro-2H-pyran-4-yl)phenyl](methyl)amino}-3,4-dihydro-2H-1-benzopyran-4-yl]methyl}amino)pyridine-4-carboxylic acid] |
| 0.1 to 1 µM | ≤ 0.1 µM | Cc1ccc(N(C)c2ccc3c(c2)OCC[C@H]3CNc2cnccc2C(=O)O)cc1F [Example 151, 3-({[(4R)-7-[(3-fluoro-4-methylphenyl)(methyl)amino]-3,4-dihydro-2H-1-benzopyran-4-yl]methyl}amino)pyridine-4-carboxylic acid] |
| 0.1 to 1 µM | ≤ 0.1 µM | CN(c1ccc(OCC2CC2)cc1)c1ccc2c(c1)OCC[C@H]2CNc1cnccc1C(=O)O [Example 211, 3-({[(4R)-7-{[4-(cyclopropylmethoxy)phenyl](methyl)amino}-3,4-dihydro-2H-1-benzopyran-4-yl]methyl}amino)pyridine-4-carboxylic acid] |
| 0.1 to 1 µM | ≤ 0.1 µM | CN(c1ccc(OC2CC2)cc1)c1ccc2c(c1)OCC[C@H]2CNc1cnccc1C(=O)O [Example 213, 3-({[(4R)-7-[(4-cyclopropoxyphenyl)(methyl)amino]-3,4-dihydro-2H-1-benzopyran-4-yl]methyl}amino)pyridine-4-carboxylic acid] |
| 0.1 to 1 µM | ≤ 0.1 µM | CC(C)Oc1ccc(N(C)c2ccc3c(c2)OCC[C@H]3CNc2cnccc2C(=O)O)cc1 [Example 210, 3-({[(4R)-7-{methyl[4-(propan-2-yloxy)phenyl]amino}-3,4-dihydro-2H-1-benzopyran-4-yl]methyl}amino)pyridine-4-carboxylic acid] |
| 0.1 to 1 µM | ≤ 0.1 µM | CN(c1ccc2c(c1)CCC[C@H]2CNc1cnccc1C(=O)O)c1ccc2ccoc2c1 [Example 135, 3-({[(1R)-6-[(1-benzofuran-6-yl)(methyl)amino]-1,2,3,4-tetrahydronaphthalen-1-yl]methyl}amino)pyridine-4-carboxylic acid] |
| 0.1 to 1 µM | ≤ 0.1 µM | CCCOc1ccc(N(C)c2ccc3c(c2)OCC[C@H]3CNc2cnccc2C(=O)O)cc1 [Example 212, 3-({[(4R)-7-[methyl(4-propoxyphenyl)amino]-3,4-dihydro-2H-1-benzopyran-4-yl]methyl}amino)pyridine-4-carboxylic acid] |
| 0.1 to 1 µM | 0.1 to 1 µM | CN(CC1CC1)c1ccc2c(c1)CCC[C@H]2CNc1cnccc1C(=O)O [Example 120, 3-({[(1R)-6-[(cyclopropylmethyl)(methyl)amino]-1,2,3,4-tetrahydronaphthalen-1-yl]methyl}amino)pyridine-4-carboxylic acid] |
| 0.1 to 1 µM | ≤ 0.1 µM | CC(c1ccccc1)c1ccc2c(c1)OCC[C@H]2CNc1cnccc1C(=O)O (stereo partly drawn) [Example 198, 3-({[(4R)-7-(1-phenylethyl)-3,4-dihydro-2H-1-benzopyran-4-yl]methyl}amino)pyridine-4-carboxylic acid] |
| ≤ 0.1 µM | > 10 µM | CN(c1ccncc1)c1ccc2c(c1)CCC[C@H]2CNc1cnccc1C(=O)O [Example 173, 3-({[(1R)-6-[methyl(pyridin-4-yl)amino]-1,2,3,4-tetrahydronaphthalen-1-yl]methyl}amino)pyridine-4-carboxylic acid] |
| 0.1 to 1 µM | 0.1 to 1 µM | COc1ccccc1N(C)c1ccc2c(c1)CCC[C@H]2CNc1cnccc1C(=O)O [Example 172, 3-({[(1R)-6-[(2-methoxyphenyl)(methyl)amino]-1,2,3,4-tetrahydronaphthalen-1-yl]methyl}amino)pyridine-4-carboxylic acid] |
| 0.1 to 1 µM | > 10 µM | CN(c1ccc2c(c1)CCC[C@H]2CNc1cnccc1C(=O)O)c1ccn(C)c(=O)c1 [Example 155, 3-({[(1R)-6-[methyl(1-methyl-2-oxo-1,2-dihydropyridin-4-yl)amino]-1,2,3,4-tetrahydronaphthalen-1-yl]methyl}amino)pyridine-4-carboxylic acid] |
| 0.1 to 1 µM | ≤ 0.1 µM | COc1cccc(N(C)c2ccc3c(c2)CCC[C@H]3CNc2cnccc2C(=O)O)c1 [Example 150, 3-({[(1R)-6-[(3-methoxyphenyl)(methyl)amino]-1,2,3,4-tetrahydronaphthalen-1-yl]methyl}amino)pyridine-4-carboxylic acid] |
